# Values of other authors in patent US12201639B2, “Aqueous oral pharmaceutical suspension compositions” (ReveraGen BioPharma, Inc., priority 2019, dated 2025).
# What was measured:
# [1] = target: T1, glucocorticoid receptor (Homo sapiens, UniProt P04150); details: pre-clinical data
# T1 sequence (P04150 1-777): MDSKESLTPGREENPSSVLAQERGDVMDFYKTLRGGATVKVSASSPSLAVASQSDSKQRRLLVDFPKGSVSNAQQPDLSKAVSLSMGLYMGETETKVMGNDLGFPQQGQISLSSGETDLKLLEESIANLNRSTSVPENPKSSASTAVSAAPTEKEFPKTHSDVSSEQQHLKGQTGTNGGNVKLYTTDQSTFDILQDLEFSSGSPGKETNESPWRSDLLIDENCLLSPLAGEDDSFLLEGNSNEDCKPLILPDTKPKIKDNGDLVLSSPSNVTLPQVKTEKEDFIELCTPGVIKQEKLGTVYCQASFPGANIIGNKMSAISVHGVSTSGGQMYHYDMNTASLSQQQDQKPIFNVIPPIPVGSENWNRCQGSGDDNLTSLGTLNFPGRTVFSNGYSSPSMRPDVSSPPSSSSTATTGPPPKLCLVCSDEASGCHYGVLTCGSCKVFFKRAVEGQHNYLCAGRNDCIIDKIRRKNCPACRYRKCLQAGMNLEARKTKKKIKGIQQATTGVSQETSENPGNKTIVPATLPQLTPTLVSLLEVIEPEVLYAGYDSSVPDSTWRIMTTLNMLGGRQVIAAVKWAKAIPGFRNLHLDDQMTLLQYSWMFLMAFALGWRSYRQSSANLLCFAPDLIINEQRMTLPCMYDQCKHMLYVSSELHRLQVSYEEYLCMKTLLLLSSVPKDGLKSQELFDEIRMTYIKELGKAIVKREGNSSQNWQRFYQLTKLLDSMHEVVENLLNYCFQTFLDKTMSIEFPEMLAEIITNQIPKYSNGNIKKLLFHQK
# [2] = system: mouse models of inflammatory states; details: compared with prednisolone
smiles,measurement,setting,value
"C[C@@H]1C[C@H]2[C@@H]3CCC4=CC(=O)C=C[C@]4(C)C3=CC[C@]2(C)[C@@]1(O)C(=O)CO [vamorolone, 17α,21-dihydroxy-16α-methylpregna-1,4,9 (11)-triene-3,20-dione]",binding to the glucocorticoid receptor,[1],binds potently
same,"side effect profiles (growth stunting, bone fragility) in mouse models",[2],dramatically improves side effect profiles
